In ChEMBL document CHEMBL3351986, “Probing linker design in citric acid-ciprofloxacin conjugates” (2014):
≈ marks a conversion by molar mass, not a printed value. Calls of active or inactive are those of the source. The calls are words filed in the database; no cut-off is given here.

Experiments:
Staphylococcus aureus [1] = experiment: Antimicrobial activity against Staphylococcus aureus NCTC 13142 after 18 hrs by micro dilution method; assay type: functional; details: NCTC 13142, 18 h
Burkholderia cepacia [2] = experiment: Antimicrobial activity against Burkholderia cepacia BIG 119 after 18 hrs by micro dilution method; assay type: functional; details: BIG 119, 18 h
Pseudomonas aeruginosa [3] = experiment: Antimicrobial activity against Pseudomonas aeruginosa BIG 37 clinical isolate after 18 hrs by micro dilution method; assay type: functional; details: BIG 37, 18 h
Staphylococcus aureus [4] = experiment: Antimicrobial activity against Staphylococcus aureus (Oxford) NCTC 6571 after 18 hrs by micro dilution method; assay type: functional; details: (Oxford) NCTC 6571, 18 h
[5] = test system: Stenotrophomonas maltophilia; experiment: Ratio of compound MIC to ciprofloxacin MIC for Stenotrophomonas maltophilia N1119 after 18 hrs by micro dilution method; assay type: functional
Pseudomonas aeruginosa [6] = experiment: Ratio of compound MIC to ciprofloxacin MIC for Pseudomonas aeruginosa environmental isolate after 18 hrs by micro dilution method; assay type: functional
Staphylococcus aureus [7] = experiment: Antimicrobial activity against Staphylococcus aureus NCTC 13143 after 18 hrs by micro dilution method; assay type: functional; details: NCTC 13143, 18 h
[8] = test system: Staphylococcus epidermidis; experiment: Antimicrobial activity against Staphylococcus epidermidis NCTC 2749 after 18 hrs by micro dilution method; assay type: functional; details: NCTC 2749, 18 h
[9] = test system: Stenotrophomonas maltophilia; experiment: Antimicrobial activity against Stenotrophomonas maltophilia N1119 after 18 hrs by micro dilution method; assay type: functional; details: N1119, 18 h
[10] = test system: Stenotrophomonas maltophilia; experiment: Ratio of compound MIC to ciprofloxacin MIC for Stenotrophomonas maltophilia N1127 after 18 hrs by micro dilution method; assay type: functional
Burkholderia cepacia [11] = experiment: Antimicrobial activity against Burkholderia cepacia BIG 120 after 18 hrs by micro dilution method; assay type: functional; details: BIG 120, 18 h
Staphylococcus aureus [12] = experiment: Ratio of compound MIC to ciprofloxacin MIC for Staphylococcus aureus NCTC 13142 after 18 hrs by micro dilution method; assay type: functional
Burkholderia cepacia [13] = experiment: Antimicrobial activity against Burkholderia cepacia BIG 117 after 18 hrs by micro dilution method; assay type: functional; details: BIG 117, 18 h
Pseudomonas aeruginosa [14] = experiment: Ratio of compound MIC to ciprofloxacin MIC for Pseudomonas aeruginosa NCTC 10662 after 18 hrs by micro dilution method; assay type: functional
Staphylococcus aureus [15] = experiment: Antimicrobial activity against Staphylococcus aureus BIG 52 after 18 hrs by micro dilution method; assay type: functional; details: BIG 52, 18 h
Pseudomonas aeruginosa [16] = experiment: Antimicrobial activity against Pseudomonas aeruginosa environmental isolate BIG 39 after 18 hrs by micro dilution method; assay type: functional; details: BIG 39, 18 h
Burkholderia cepacia [17] = experiment: Ratio of compound MIC to ciprofloxacin MIC for Burkholderia cepacia BIG 118 after 18 hrs by micro dilution method; assay type: functional
Pseudomonas aeruginosa [18] = experiment: Ratio of compound MIC to ciprofloxacin MIC for Pseudomonas aeruginosa BIG 37 clinical isolate after 18 hrs by micro dilution method; assay type: functional
Burkholderia cepacia [19] = experiment: Antimicrobial activity against Burkholderia cepacia BIG 118 after 18 hrs by micro dilution method; assay type: functional; details: BIG 118, 18 h
[20] = test system: Staphylococcus epidermidis; experiment: Ratio of compound MIC to ciprofloxacin MIC for Staphylococcus epidermidis NCTC 11047 after 18 hrs by micro dilution method; assay type: functional
[21] = test system: Stenotrophomonas maltophilia; experiment: Antimicrobial activity against Stenotrophomonas maltophilia N1124 after 18 hrs by micro dilution method; assay type: functional; details: N1124, 18 h
Escherichia coli [22] = experiment: Antimicrobial activity against Escherichia coli NCTC 10418 after 18 hrs by micro dilution method; assay type: functional; details: NCTC 10418, 18 h
Escherichia coli [23] = experiment: Antimicrobial activity against Escherichia coli BIG 0046 after 18 hrs by micro dilution method; assay type: functional; details: BIG 0046, 18 h
[24] = test system: Staphylococcus epidermidis; experiment: Ratio of compound MIC to ciprofloxacin MIC for Staphylococcus epidermidis NCTC 2749 after 18 hrs by micro dilution method; assay type: functional
Burkholderia cepacia [25] = experiment: Antimicrobial activity against Burkholderia cepacia BIG 9 NCTC 10744 after 18 hrs by micro dilution method; assay type: functional; details: BIG 9 NCTC 10744, 18 h
Pseudomonas aeruginosa [26] = experiment: Ratio of compound MIC to ciprofloxacin MIC for Pseudomonas aeruginosa BIG 63 after 18 hrs by micro dilution method; assay type: functional
Serratia marcescens [27] = experiment: Ratio of compound MIC to ciprofloxacin MIC for Serratia marcescens BIG 11 NCTC 1377 after 18 hrs by micro dilution method; assay type: functional
[28] = test system: Staphylococcus haemolyticus; experiment: Antimicrobial activity against Staphylococcus haemolyticus NCTC 11042 after 18 hrs by micro dilution method; assay type: functional; details: NCTC 11042, 18 h
Serratia marcescens [29] = experiment: Antimicrobial activity against Serratia marcescens BIG 11 NCTC 1377 after 18 hrs by micro dilution method; assay type: functional; details: BIG 11 NCTC 1377, 18 h
Burkholderia cepacia [30] = experiment: Ratio of compound MIC to ciprofloxacin MIC for Burkholderia cepacia BIG 9 NCTC 10744 after 18 hrs by micro dilution method; assay type: functional
[31] = test system: Staphylococcus haemolyticus; experiment: Ratio of compound MIC to ciprofloxacin MIC for Staphylococcus haemolyticus NCTC 11042 after 18 hrs by micro dilution method; assay type: functional
Escherichia coli [32] = experiment: Ratio of compound MIC to ciprofloxacin MIC for Escherichia coli NCTC 10418 after 18 hrs by micro dilution method; assay type: functional
Burkholderia cepacia [33] = experiment: Ratio of compound MIC to ciprofloxacin MIC for Burkholderia cepacia BIG 120 after 18 hrs by micro dilution method; assay type: functional
Burkholderia cepacia [34] = experiment: Antimicrobial activity against Burkholderia cepacia BIG 121 after 18 hrs by micro dilution method; assay type: functional; details: BIG 121, 18 h
Pseudomonas aeruginosa [35] = experiment: Antimicrobial activity against Pseudomonas aeruginosa NCTC 10662 after 18 hrs by micro dilution method; assay type: functional; details: NCTC 10662, 18 h
[36] = test system: Staphylococcus epidermidis; experiment: Antimicrobial activity against Staphylococcus epidermidis NCTC 11047 after 18 hrs by micro dilution method; assay type: functional; details: NCTC 11047, 18 h
Staphylococcus aureus [37] = experiment: Ratio of compound MIC to ciprofloxacin MIC for Staphylococcus aureus (Oxford) NCTC 6571 after 18 hrs by micro dilution method; assay type: functional
Staphylococcus aureus [38] = experiment: Ratio of compound MIC to ciprofloxacin MIC for Staphylococcus aureus BIG 52 after 18 hrs by micro dilution method; assay type: functional
Staphylococcus aureus [39] = experiment: Antimicrobial activity against Staphylococcus aureus HG-1 after 18 hrs by micro dilution method; assay type: functional; details: HG-1, 18 h
[40] = test system: Stenotrophomonas maltophilia; experiment: Antimicrobial activity against Stenotrophomonas maltophilia N1127 after 18 hrs by micro dilution method; assay type: functional; details: N1127, 18 h
[41] = Inhibition of DNA gyrase (unknown origin) assessed as reduction in supercoiled form of DNA at 20 uM using ethidium bromide staining by gel electrophoresis
Burkholderia cepacia [42] = experiment: Ratio of compound MIC to ciprofloxacin MIC for Burkholderia cepacia BIG 117 after 18 hrs by micro dilution method; assay type: functional
Pseudomonas aeruginosa [43] = experiment: Antimicrobial activity against Pseudomonas aeruginosa BIG 63 after 18 hrs by micro dilution method; assay type: functional; details: BIG 63, 18 h
Burkholderia cepacia [44] = experiment: Ratio of compound MIC to ciprofloxacin MIC for Burkholderia cepacia BIG 119 after 18 hrs by micro dilution method; assay type: functional
[45] = test system: Stenotrophomonas maltophilia; experiment: Ratio of compound MIC to ciprofloxacin MIC for Stenotrophomonas maltophilia N1124 after 18 hrs by micro dilution method; assay type: functional

O=C(O)CC(O)(CC(=O)N1CCN(c2cc3c(cc2F)c(=O)c(C(=O)O)cn3C2CC2)CC1)C(=O)O (configuration not stated)
MIC (Staphylococcus aureus [1]): 8 µg/mL (≈ 15.8 µM)
MIC (Burkholderia cepacia [2]): > 36 µg/mL
MIC (Pseudomonas aeruginosa [3]): 16 µg/mL (≈ 31.7 µM)
MIC (Staphylococcus aureus [4]): 16 µg/mL (≈ 31.7 µM)
Ratio [5]: 20.1
Ratio (Pseudomonas aeruginosa [6]): 10.5
MIC (Staphylococcus aureus [7]): > 36 µg/mL
MIC [8]: 8 µg/mL (≈ 15.8 µM)
MIC [9]: 32 µg/mL (≈ 63.3 µM)
Ratio [10]: 10.5
MIC (Burkholderia cepacia [11]): 16 µg/mL (≈ 31.7 µM)
Ratio (Staphylococcus aureus [12]): 10.5
MIC (Burkholderia cepacia [13]): 16 µg/mL (≈ 31.7 µM)
Ratio (Pseudomonas aeruginosa [14]): 10.5
MIC (Staphylococcus aureus [15]): 16 µg/mL (≈ 31.7 µM)
MIC (Pseudomonas aeruginosa [16]): 4 µg/mL (≈ 7.91 µM)
Ratio (Burkholderia cepacia [17]): 41.8
Ratio (Pseudomonas aeruginosa [18]): 5.2
MIC (Burkholderia cepacia [19]): 16 µg/mL (≈ 31.7 µM)
Ratio [20]: 83.8
MIC [21]: > 36 µg/mL
MIC (Escherichia coli [22]): 0.25 µg/mL (≈ 0.495 µM)
MIC (Escherichia coli [23]): > 36 µg/mL
Ratio [24]: 20.9
MIC (Burkholderia cepacia [25]): 16 µg/mL (≈ 31.7 µM)
Ratio (Pseudomonas aeruginosa [26]): 10.5
Ratio (Serratia marcescens [27]): 11
MIC [28]: 16 µg/mL (≈ 31.7 µM)
MIC (Serratia marcescens [29]): 1 µg/mL (≈ 1.98 µM)
Ratio (Burkholderia cepacia [30]): 20.9
Ratio [31]: 83.8
Ratio (Escherichia coli [32]): 2.8
Ratio (Burkholderia cepacia [33]): 5.2
MIC (Burkholderia cepacia [34]): > 36 µg/mL
MIC (Pseudomonas aeruginosa [35]): 4 µg/mL (≈ 7.91 µM)
MIC [36]: 16 µg/mL (≈ 31.7 µM)
Ratio (Staphylococcus aureus [37]): 41.8
Ratio (Staphylococcus aureus [38]): 20.9
MIC (Staphylococcus aureus [39]): > 36 µg/mL
MIC [40]: 32 µg/mL (≈ 63.3 µM)
inhibition [41]: Active
Ratio (Burkholderia cepacia [42]): 10.5
MIC (Pseudomonas aeruginosa [43]): 4 µg/mL (≈ 7.91 µM)

O=C(O)CC(O)(CC(=O)NCC(=O)N1CCN(c2cc3c(cc2F)c(=O)c(C(=O)O)cn3C2CC2)CC1)C(=O)O (racemic)
MIC (Staphylococcus aureus [1]): 16 µg/mL (≈ 28.4 µM)
MIC (Burkholderia cepacia [2]): 32 µg/mL (≈ 56.9 µM)
MIC (Pseudomonas aeruginosa [3]): 16 µg/mL (≈ 28.4 µM)
MIC (Staphylococcus aureus [4]): 16 µg/mL (≈ 28.4 µM)
Ratio (Pseudomonas aeruginosa [6]): 4.72
MIC (Staphylococcus aureus [7]): > 36 µg/mL
MIC [8]: 8 µg/mL (≈ 14.2 µM)
MIC [9]: > 36 µg/mL
Ratio [10]: 9.4
MIC (Burkholderia cepacia [11]): 32 µg/mL (≈ 56.9 µM)
Ratio (Staphylococcus aureus [12]): 18.8
MIC (Burkholderia cepacia [13]): 8 µg/mL (≈ 14.2 µM)
Ratio (Pseudomonas aeruginosa [14]): 4.72
MIC (Staphylococcus aureus [15]): 16 µg/mL (≈ 28.4 µM)
MIC (Pseudomonas aeruginosa [16]): 2 µg/mL (≈ 3.56 µM)
Ratio (Burkholderia cepacia [17]): 18.8
Ratio (Pseudomonas aeruginosa [18]): 4.7
Ratio (Burkholderia cepacia [44]): 4.7
MIC (Burkholderia cepacia [19]): 8 µg/mL (≈ 14.2 µM)
Ratio [20]: 75.3
MIC [21]: 32 µg/mL (≈ 56.9 µM)
MIC (Escherichia coli [22]): 0.125 µg/mL (≈ 0.222 µM)
MIC (Escherichia coli [23]): 36 µg/mL (≈ 64 µM)
Ratio [24]: 18.8
Ratio [45]: 4.7
MIC (Burkholderia cepacia [25]): 8 µg/mL (≈ 14.2 µM)
Ratio (Pseudomonas aeruginosa [26]): 18.8
Ratio (Serratia marcescens [27]): 4.91
MIC [28]: 16 µg/mL (≈ 28.4 µM)
MIC (Serratia marcescens [29]): 0.5 µg/mL (≈ 0.889 µM)
Ratio (Burkholderia cepacia [30]): 9.4
Ratio [31]: 75.3
Ratio (Escherichia coli [32]): 1.23
Ratio (Burkholderia cepacia [33]): 9.4
MIC (Burkholderia cepacia [34]): > 36 µg/mL
MIC (Pseudomonas aeruginosa [35]): 2 µg/mL (≈ 3.56 µM)
MIC [36]: 16 µg/mL (≈ 28.4 µM)
Ratio (Staphylococcus aureus [37]): 37.6
Ratio (Staphylococcus aureus [38]): 18.8
MIC (Staphylococcus aureus [39]): > 36 µg/mL
MIC [40]: 32 µg/mL (≈ 56.9 µM)
inhibition [41]: Active
Ratio (Burkholderia cepacia [42]): 4.7
MIC (Pseudomonas aeruginosa [43]): 8 µg/mL (≈ 14.2 µM)
